Patent US6338854B1, “Photoaging skin-care preparation and method of treating wrinkled skin” (Pola Chemical Industries, Inc., priority 1996, dated 2002)

Legend:
Assay type in all cases: in vivo
[1] = tested on: wrinkles on the back skin due to photoaging, hairless mice; assay: UV wrinkle model amelioration test; settings: 9 weeks, 10 mice; for Number of Mice (number) +: +: Wrinkle-ameliorating effect was observed; for Number of Mice (number) ±: ±: Slight wrinkle-ameliorating effect; for Number of Mice (number) −: −: No wrinkle-ameliorating effect
Description: UV wrinkle model amelioration tests were conducted with the benzyl ursolate, methoxybenzyl oleanolate, phenylbenzyl betulate, benzoyl oleanolate, methoxybenzoyl betulate, and phenylpropionyl ursolate obtained in the above described Production Examples on hairless mice (5-week old, female) as test animals.
UVB (60 mJ/cm^2) was irradiated to the back skin of each animal of a test group consisting of 10 hairless mice once a day in a frequency of 5 days a week and after 8 weeks formation of wrinkles on the back skin due to photoaging was confirmed. Thereafter, 100 μl of ethanol solutions containing the aromatic compound derivatives of triterpenoid obtained in the Production Examples in concentrations shown in Table 3 were applied thereon once a day in a frequency of 5 days a week. After 9 weeks from the initiation of applying, the degree of ameliorating wrinkles in the skin due to photoaging were evaluated with naked eyes according to the following evaluation criteria.
−: No wrinkle-ameliorating effect was observed.
±: Slight wrinkle-ameliorating effect was observed.
+: Wrinkle-ameliorating effect was observed.
For comparison, ethanol solutions containing of palmitoyl oleanolate or 2-ethylhexyl 2-ethylhexanoyl ursolate in 1% concentration, hitherto used as drugs having a photoaging inhibiting effect, and neat ethanol as a control were applied to hairless mice after UVB irradiation in the same manner as described above and wrinkle-ameliorating effects were evaluated, respectively.

Hartley guinea pigs [2] = assay: Allergy test (maximization method); settings: skin reaction 24 hours after patch removal, scale 0-4
Text: Allergy tests of benzyl ursolate, methoxybenzyl oleanolate, phenylbenzyl betulate, benzoyl oleanolate, methoxybenzoyl betulate, and phenylpropionyl ursolate obtained in the above-described Production Examples were made using Hartley guinea pigs (300 to 500 g, female) as test animals.
For test groups each consisting of 6 guinea pigs were applied each an aromatic compound derivative of triterpenoid to a concentration of 3 w/v % in olive oil, an aromatic compound derivative of triterpenoid to a concentration of 0.3 w/v % in olive oil, and neat olive oil, respectively, by a maximization method to perform sensitization induction.
Thereafter, in order to induce sufficient immunoresponse, after a grace period of 10 days from the day when the final sensitization was made, there was applied to the back skin of each guinea pig a patch plate having 1.5 cm diameter coated with 100 μl of an aromatic compound derivative of triterpenoid to a concentration of 3 w/v % in olive oil, an aromatic compound derivative of triterpenoid to a concentration of 0.3 w/v % in olive oil, or neat olive oil, and the patch plate was removed after 24 hours. The resulting skin reaction after 24 hours from the removal of the patch plate was evaluated according to the following evaluation criteria and an average score was calculated for each test group.
(§1) 0: No skin reaction being observed
(§2) 1: Weak or unclearly bordered erythema
(§3) 3: Reaction accompanying edema
(§4) 4: Reaction of ulcer, necrosis, or the like

Hartley guinea pigs [3] = assay: Skin irritation test (24 hours' closed patch test)
Text: Skin irritation tests of benzyl ursolate, methoxybenzyl oleanolate, nitrobenzyl betulate, naphthylmethyl ursolate, diphenylmethyl oleanolate, benzoyl oleanolate, methoxybenzoyl betulate, and phenylpropionyl ursolate obtained in the above-described Production Examples were made using Hartley guinea pigs (300 to 500 g, female) as test animals.
For test groups each consisting of 6 guinea pigs, the hair on the back of each guinea pig was removed or shaven and on the hair-removed or shaven portion was applied a plastic adhesive plaster which a cloth patch of 15 mm in diameter impregnated with 50 mg of white vaseline containing a 10% by weight of one of the aromatic compound derivatives of triterpenoid obtained in the Production Examples described above was attached, and then 24 hours' closed patch test was performed. After the closed patch tests were completed, the resulting skin reactions after the removal of the plastic adhesive plasters were evaluated immediately (after 0 hour) and after 24 hours respectively, according to the evaluation criteria below and an average score was calculated based on the results obtained 6 animals in each test group.
as §1, §2, §3, §4
As a control, the above-described test and evaluation were conducted with only white vaseline.

[4] = 3%-challenge patch, 3 w/v % in olive oil
[5] = skin reaction 24 hours after plaster removal, 10% by weight in white vaseline, 24 hours' closed patch, average of 6 guinea pigs, scale 0-4
[6] = skin reaction immediately after plaster removal, 10% by weight in white vaseline, 24 hours' closed patch, average of 6 guinea pigs, scale 0-4

In the case of CCCCC(CC)COC(=O)[C@]12CC[C@@H](C)[C@H](C)[C@H]1C1=CC[C@@H]3[C@@]4(C)CC[C@H](OC(=O)C(CC)CCCC)C(C)(C)[C@@H]4CC[C@@]3(C)[C@]1(C)CC2 (stereo partly drawn) [2-Ethylhexyl 2-ethylhexanoyl ursolate, 2-ethylhexyl 2-ethylhexanoyl ursolate, reference compound], the “Number of Mice (number) +” value ([1]; 1.0 w/v% in ethanol) is reported as 6 number, the “Number of Mice (number) ±” value ([1]; 1.0 w/v% in ethanol) is reported as 4 number and the “Number of Mice (number) −” value ([1]; 1.0 w/v% in ethanol) is reported as 0 number.
CC1(C)CC[C@]2(C(=O)O)CC[C@]3(C)C(=CC[C@@H]4[C@@]5(C)CC[C@H](OC(=O)c6ccccc6)C(C)(C)[C@@H]5CC[C@]43C)[C@@H]2C1 [Benzoyl oleanolate, benzoyl oleanolate] was tested, and the “Evaluation Score (Average), 3%-induced group” value (Hartley guinea pigs [2]; 0.3%-challenge patch) was 0, the “Evaluation Score (Average), Olive oil induced group” value (Hartley guinea pigs [2]; 0.3%-challenge patch) was 0 and the “Evaluation Score (Average), 0.3%-induced group” value (Hartley guinea pigs [2]; 0.3%-sensitized group) was 0. For the same molecule, the “Evaluation Score (Average), 3%-induced group” value (Hartley guinea pigs [2]; [4]) was 0, the “Evaluation Score (Average), Olive oil induced group” value (Hartley guinea pigs [2]; 3%-challenge patch) was 0 and the “Evaluation Score (Average), 0.3%-induced group” value (Hartley guinea pigs [2]; 3%-sensitized group) was 0. For the same molecule, the “Evaluation Score (Average), 3%-induced group” value (Hartley guinea pigs [2]; Olive oil-challenge patch) was 0, the “Evaluation Score (Average), 0.3%-induced group” value (Hartley guinea pigs [2]; Olive oil-sensitized group) was 0 and the “Number of Mice (number) +” value ([1]; 0.01 w/v% in ethanol) was 6 number. For the same molecule, the “Number of Mice (number) ±” value ([1]; 0.01 w/v% in ethanol) was 4 number, the “Number of Mice (number) −” value ([1]; 0.01 w/v% in ethanol) was 0 number and the “Score (Average) After 24 hours” value (Hartley guinea pigs [3]; [5]) was 0. For the same molecule, the “Score (Average) After 0 hour” value (Hartley guinea pigs [3]; [6]) was 0.
In the case of C[C@H]1[C@H](C)CC[C@]2(C(=O)OCc3ccccc3)CC[C@]3(C)C(=CC[C@@H]4[C@@]5(C)CC[C@H](O)C(C)(C)[C@@H]5CC[C@]43C)[C@H]12 [Benzyl ursolate, benzyl ursolate], the “Evaluation Score (Average), 3%-induced group” value (Hartley guinea pigs [2]; 0.3%-challenge patch) is reported as 0, the “Evaluation Score (Average), Olive oil induced group” value (Hartley guinea pigs [2]; 0.3%-challenge patch) is reported as 0 and the “Evaluation Score (Average), 0.3%-induced group” value (Hartley guinea pigs [2]; 0.3%-sensitized group) is reported as 0.17. For the same molecule, the “Evaluation Score (Average), 3%-induced group” value (Hartley guinea pigs [2]; [4]) was 0.17, the “Evaluation Score (Average), Olive oil induced group” value (Hartley guinea pigs [2]; 3%-challenge patch) was 0.33 and the “Evaluation Score (Average), 0.3%-induced group” value (Hartley guinea pigs [2]; 3%-sensitized group) was 0. The “Evaluation Score (Average), 3%-induced group” value (Hartley guinea pigs [2]; Olive oil-challenge patch) was 0, the “Evaluation Score (Average), 0.3%-induced group” value (Hartley guinea pigs [2]; Olive oil-sensitized group) was 0 and the “Number of Mice (number) +” value ([1]; 0.005 w/v% in ethanol, 100 μl once a day 5 days a week) was 9 number. For the same molecule, the “Number of Mice (number) ±” value ([1]; 0.005 w/v% in ethanol) was 1 number, the “Number of Mice (number) −” value ([1]; 0.005 w/v% in ethanol) was 0 number and the “Score (Average) After 24 hours” value (Hartley guinea pigs [3]; [5]) was 0. The “Score (Average) After 0 hour” value (Hartley guinea pigs [3]; [6]) was 0.
With CC1(C)CC[C@]2(C(=O)OC(c3ccccc3)c3ccccc3)CC[C@]3(C)C(=CC[C@@H]4[C@@]5(C)CC[C@H](O)C(C)(C)[C@@H]5CC[C@]43C)[C@@H]2C1 [Diphenylmethyl oleanolate, diphenylmethyl oleanolate] the “Score (Average) After 24 hours” value (Hartley guinea pigs [3]; [5]) was 0 and the “Score (Average) After 0 hour” value (Hartley guinea pigs [3]; [6]) was 0.
In the case of C=C(C)C1CCC2(C(=O)O)CCC3(C)C(CCC4C5(C)CCC(OC(=O)c6ccc(OC)cc6)C(C)(C)C5CCC43C)C12 (stereo not drawn) [Methoxybenzoyl betulate, methoxybenzoyl betulate], the “Number of Mice (number) +” value ([1]; 0.01 w/v% in ethanol) is reported as 8 number, the “Number of Mice (number) ±” value ([1]; 0.01 w/v% in ethanol) is reported as 2 number and the “Number of Mice (number) −” value ([1]; 0.01 w/v% in ethanol) is reported as 0 number. For the same molecule, the “Score (Average) After 0 hour” value (Hartley guinea pigs [3]; guinea pig, in vivo) was 0 and the “Score (Average) After 24 hours” value (Hartley guinea pigs [3]; guinea pig, in vivo) was 0.
In the case of COc1ccc(COC(=O)[C@]23CCC(C)(C)C[C@H]2C2=CC[C@@H]4[C@@]5(C)CC[C@H](O)C(C)(C)[C@@H]5CC[C@@]4(C)[C@]2(C)CC3)cc1 [Methoxybenzyl oleanolate, methoxybenzyl oleanolate], the “Evaluation Score (Average), 3%-induced group” value (Hartley guinea pigs [2]; 0.3%-challenge patch) is reported as 0, the “Evaluation Score (Average), Olive oil induced group” value (Hartley guinea pigs [2]; 0.3%-challenge patch) is reported as 0.17 and the “Evaluation Score (Average), 0.3%-induced group” value (Hartley guinea pigs [2]; 0.3%-sensitized group) is reported as 0. The “Evaluation Score (Average), 3%-induced group” value (Hartley guinea pigs [2]; [4]) was 0.33, the “Evaluation Score (Average), Olive oil induced group” value (Hartley guinea pigs [2]; 3%-challenge patch) was 0.17 and the “Evaluation Score (Average), 0.3%-induced group” value (Hartley guinea pigs [2]; 3%-sensitized group) was 0. For the same molecule, the “Evaluation Score (Average), 3%-induced group” value (Hartley guinea pigs [2]; Olive oil-challenge patch) was 0.17, the “Evaluation Score (Average), 0.3%-induced group” value (Hartley guinea pigs [2]; Olive oil-sensitized group) was 0.17 and the “Number of Mice (number) +” value ([1]; 0.01 w/v% in ethanol) was 7 number. The “Number of Mice (number) ±” value ([1]; 0.01 w/v% in ethanol) was 3 number, the “Number of Mice (number) −” value ([1]; 0.01 w/v% in ethanol) was 0 number and the “Score (Average) After 24 hours” value (Hartley guinea pigs [3]; [5]) was 0. For the same molecule, the “Score (Average) After 0 hour” value (Hartley guinea pigs [3]; [6]) was 0.
With C=C(C)C1CCC2(C(=O)OCc3ccc([N+](=O)[O-])cc3)CCC3(C)C(CCC4C5(C)CCC(O)C(C)(C)C5CCC43C)C12 (stereo not drawn) [Nitrobenzyl betulate, nitrobenzyl betulate] the “Score (Average) After 0 hour” value (Hartley guinea pigs [3]; guinea pig, in vivo) was 0 and the “Score (Average) After 24 hours” value (Hartley guinea pigs [3]; guinea pig, in vivo) was 0.
With CCCCCCCCCCCCCCCC(=O)OC1CCC2(C)C(CCC3(C)C2CC=C2C4CC(C)(C)CCC4(C(=O)O)CCC23C)C1(C)C (stereo not drawn) [Palmitoyl oleanolate, palmitoyl oleanolate, reference compound] the “Number of Mice (number) +” value ([1]; 1.0 w/v% in ethanol) was 7 number, the “Number of Mice (number) ±” value ([1]; 1.0 w/v% in ethanol) was 3 number and the “Number of Mice (number) −” value ([1]; 1.0 w/v% in ethanol) was 0 number.
In the case of C=C(C)C1CCC2(C(=O)OCc3ccc(-c4ccccc4)cc3)CCC3(C)C(CCC4C5(C)CCC(O)C(C)(C)C5CCC43C)C12 (stereo not drawn) [Phenylbenzyl betulate, phenylbenzyl betulate], the “Number of Mice (number) +” value ([1]; 0.05 w/v% in ethanol) is reported as 8 number, the “Number of Mice (number) ±” value ([1]; 0.05 w/v% in ethanol) is reported as 2 number and the “Number of Mice (number) −” value ([1]; 0.05 w/v% in ethanol) is reported as 0 number.
With C[C@H]1[C@H](C)CC[C@]2(C(=O)O)CC[C@]3(C)C(=CC[C@@H]4[C@@]5(C)CC[C@H](OC(=O)CCc6ccccc6)C(C)(C)[C@@H]5CC[C@]43C)[C@H]12 [Phenylpropionyl ursolate, phenylpropionyl ursolate] the “Evaluation Score (Average), 3%-induced group” value (Hartley guinea pigs [2]; 0.3%-challenge patch) was 0.17, the “Evaluation Score (Average), Olive oil induced group” value (Hartley guinea pigs [2]; 0.3%-challenge patch) was 0 and the “Evaluation Score (Average), 0.3%-induced group” value (Hartley guinea pigs [2]; 0.3%-sensitized group) was 0. The “Evaluation Score (Average), 3%-induced group” value (Hartley guinea pigs [2]; [4]) was 0, the “Evaluation Score (Average), Olive oil induced group” value (Hartley guinea pigs [2]; 3%-challenge patch) was 0 and the “Evaluation Score (Average), 0.3%-induced group” value (Hartley guinea pigs [2]; 3%-sensitized group) was 0. For the same molecule, the “Evaluation Score (Average), 3%-induced group” value (Hartley guinea pigs [2]; Olive oil-challenge patch) was 0, the “Evaluation Score (Average), 0.3%-induced group” value (Hartley guinea pigs [2]; Olive oil-sensitized group) was 0 and the “Number of Mice (number) +” value ([1]; 0.05 w/v% in ethanol) was 7 number. The “Number of Mice (number) ±” value ([1]; 0.05 w/v% in ethanol) was 3 number, the “Number of Mice (number) −” value ([1]; 0.05 w/v% in ethanol) was 0 number and the “Score (Average) After 24 hours” value (Hartley guinea pigs [3]; [5]) was 0. For the same molecule, the “Score (Average) After 0 hour” value (Hartley guinea pigs [3]; [6]) was 0.
In the case of naphthylmethyl ursolate, the “Score (Average) After 24 hours” value (Hartley guinea pigs [3]; [5]) is reported as 0 and the “Score (Average) After 0 hour” value (Hartley guinea pigs [3]; [6]) is reported as 0.
